Patent US6093732A, “4-hydroxyquinoline-3-carboxamides and hydrazides as antiviral agents” (Pharmacia & Upjohn Company, priority 1998, dated 2000)
Structures can show the parent of a compound that is named as a salt.

Target: T1, HCMV polymerase (Human cytomegalovirus, UniProt P08546)
T1 construct: made in house; host or cells: recombinant baculovirus-infected SF-9 cells
Assay: HCMV polymerase scintillation proximity assay (SPA), modified version
Format: biochemical
Conditions: CMV polymerase; Table 1; modified assay with 4.5 mM DTT, compounds in 100% DMSO; read-out: Antiviral Selective Polymerase IC50 Values, CMV
How it was run: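 SPA measuring 3H-dTTP (90 nM) incorporation on 6 nM biotinylated poly(dA)-oligo(dT) by SF-9-expressed enzyme, pH 7.5 HEPES/KCl/MgCl2/BSA buffer with or without 2 mM CHAPS. Run at 25° C or 37° C, stopped with EDTA while linear (HCMV 30 min); IC50 from linear regression. Modified format adds 4.5 mM DTT, compounds diluted in 100% DMSO.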

T1 sequence (P08546 whole entry): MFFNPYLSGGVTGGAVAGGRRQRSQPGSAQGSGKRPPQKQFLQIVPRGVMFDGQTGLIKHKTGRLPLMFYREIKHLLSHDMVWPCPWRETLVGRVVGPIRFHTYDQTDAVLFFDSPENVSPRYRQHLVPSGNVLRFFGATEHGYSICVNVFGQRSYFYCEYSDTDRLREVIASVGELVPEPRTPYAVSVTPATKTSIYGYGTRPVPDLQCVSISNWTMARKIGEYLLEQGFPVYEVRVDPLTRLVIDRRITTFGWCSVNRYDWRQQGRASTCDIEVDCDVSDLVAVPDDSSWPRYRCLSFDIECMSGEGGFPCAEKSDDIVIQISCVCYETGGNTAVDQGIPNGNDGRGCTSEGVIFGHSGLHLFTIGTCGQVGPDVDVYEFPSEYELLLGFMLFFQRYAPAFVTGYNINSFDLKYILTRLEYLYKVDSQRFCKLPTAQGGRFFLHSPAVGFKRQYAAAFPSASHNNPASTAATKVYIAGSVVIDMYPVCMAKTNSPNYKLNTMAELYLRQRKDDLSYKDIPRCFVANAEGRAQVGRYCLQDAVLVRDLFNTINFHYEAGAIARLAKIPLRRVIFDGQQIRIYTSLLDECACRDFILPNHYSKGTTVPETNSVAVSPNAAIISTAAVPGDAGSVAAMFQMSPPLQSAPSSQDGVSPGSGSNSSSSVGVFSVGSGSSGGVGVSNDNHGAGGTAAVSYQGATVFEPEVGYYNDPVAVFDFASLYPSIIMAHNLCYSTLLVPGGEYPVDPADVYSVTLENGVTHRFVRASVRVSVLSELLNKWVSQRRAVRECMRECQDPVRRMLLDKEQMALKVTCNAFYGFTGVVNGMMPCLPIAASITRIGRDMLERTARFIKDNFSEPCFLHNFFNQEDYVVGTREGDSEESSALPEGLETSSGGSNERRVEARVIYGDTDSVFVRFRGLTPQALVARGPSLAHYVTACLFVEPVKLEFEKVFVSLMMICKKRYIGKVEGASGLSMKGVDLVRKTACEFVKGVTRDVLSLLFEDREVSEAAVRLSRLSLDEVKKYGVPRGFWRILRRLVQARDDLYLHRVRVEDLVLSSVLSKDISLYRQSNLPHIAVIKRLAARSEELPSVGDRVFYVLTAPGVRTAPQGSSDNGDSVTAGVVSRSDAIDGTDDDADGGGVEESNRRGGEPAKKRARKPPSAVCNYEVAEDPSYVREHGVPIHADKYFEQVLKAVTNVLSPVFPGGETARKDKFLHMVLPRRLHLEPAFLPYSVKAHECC

IC50 [µM]	Compound
2.5	COCCCc1cc(F)c2ncc(C(=O)NCc3ccc(Cl)cc3)c(O)c2c1 [Example 103, N-(4-Chlorobenzyl)-8-fluoro-4-hydroxy-6-(3-methoxypropyl)-3-quinolinecarboxamide]
< 0.78	O=C(NCc1ccc(Cl)cc1)c1cnc2c(F)cc(/C=C\CCO)cc2c1O [Example 104, N-(4-Chlorobenzyl)-8-fluoro-4-hydroxy-6-[(Z)-4-hydroxy-1-butenyl]-3-quinolinecarboxamide]
10.4	N#CCCCCCc1cc(F)c2ncc(C(=O)NCc3ccc(Cl)cc3)c(O)c2c1 [Example 105, N-(4-Chlorobenzyl)-6-(5-cyanopentyl)-8-fluoro-4-hydroxy-3-quinolinecarboxamide]
5.4	O=C(NCc1ccc(Cl)cc1)c1cnc2c(F)cc(C#CCCCO)cc2c1O [Example 107, N-(4-Chlorobenzyl)-8-fluoro-4-hydroxy-6-(5-hydroxy-1-pentynyl)-3-quinolinecarboxamide]
11	COC(=O)c1cc(F)c2ncc(C(=O)NCc3ccc(Cl)cc3)c(O)c2c1 [Example 109, Methyl 3-{[(4-chlorobenzyl)amino]carbonyl}-8-fluoro-4-hydroxy-6-quinolinecarboxylate]
0.28	O=C(NCc1ccc(Cl)cc1)c1cnc2c(F)cc(CCCO)cc2c1O [Example 110, N-(4-Chlorobenzyl)-8-fluoro-4-hydroxy-6-(3-hydroxypropyl)-3-quinolinecarboxamide]
10.4	O=C(O)/C=C/c1cc(F)c2ncc(C(=O)NCc3ccc(Cl)cc3)c(O)c2c1 [Example 113, (E)-3-(3-{[(4-Chlorobenzyl)amino]carbonyl}-8-fluoro-4-hydroxy-6-quinolinyl)-2-propenoic acid]
2.2	O=C(O)CCc1cc(F)c2ncc(C(=O)NCc3ccc(Cl)cc3)c(O)c2c1 [Example 114, 3-(3-{[(4-Chlorobenzyl)amino]carbonyl}-8-fluoro-4-hydroxy-6-quinolinyl)propanoic acid]
19.7	CSCC#Cc1cc(F)c2ncc(C(=O)NCc3ccc(Cl)cc3)c(O)c2c1 [Example 126, N-[(4-Chlorophenyl)methyl]-8-fluoro-4-hydroxy-6-[3-(methylthio)-1-propynyl]-3-quinolinecarboxamide]
0.46	CSC/C=C\c1cc(F)c2ncc(C(=O)NCc3ccc(Cl)cc3)c(O)c2c1 [Example 128, N-[(4-Chlorophenyl)methyl]-8-fluoro-4-hydroxy-6-[(1Z)-3-(methylthio)-1-propenyl]-3-quinolinecarboxamide]
1	CCSC/C=C\c1cc(F)c2ncc(C(=O)NCc3ccc(Cl)cc3)c(O)c2c1 [Example 129, N-[(4-Chlorophenyl)methyl]-6-[(1Z)-3-(ethylthio)-1-propenyl]-8-fluoro-4-hydroxy-3-quinolinecarboxamide]
1.1	CSCCCc1cc(F)c2ncc(C(=O)NCc3ccc(Cl)cc3)c(O)c2c1 [Example 130, N-[(4-Chlorophenyl)methyl]-8-fluoro-4-hydroxy-6-[3-(methylthio)propyl]-3-quinolinecarboxamide]
0.64	CC(O)CCc1cc(F)c2ncc(C(=O)NCc3ccc(Cl)cc3)c(O)c2c1 (stereo not drawn) [Example 132, N-(4-Chlorobenzyl)-8-fluoro-4-hydroxy-6-(3-hydroxybutyl)-3-quinolinecarboxamide]
0.6	O=C(NCc1ccc(Cl)cc1)c1cnc2c(F)cc(/C=C\CO)cc2c1O [Example 137, N-(4-Chlorobenzyl)-8-fluoro-4-hydroxy-6-[(Z)-3-hydroxy-1-propenyl]-3-quinolinecarboxamide]
1.9	O=CCCc1cc(F)c2ncc(C(=O)NCc3ccc(Cl)cc3)c(O)c2c1 [Example 139, N-(4-Chlorobenzyl)-8-fluoro-4-hydroxy-6-(3-oxopropyl)-3-quinolinecarboxamide]
10.1	O=C(NCc1ccc(Cl)cc1)c1cnc2c(F)cc(CO)cc2c1O [Example 141, N-(4-Chlorobenzyl)-8-fluoro-4-hydroxy-6-(hydroxymethyl)-3-quinolinecarboxamide]
3	O=C(NCc1ccc(Cl)cc1)c1cnc2c(F)cc(C#CCF)cc2c1O [Example 143, N-(4-Chlorobenzyl)-8-fluoro-6-(3-fluoro-1-propynyl)-4-hydroxy-3-quinolinecarboxamide]
8.3	CC(=O)/C=C/c1cc(F)c2ncc(C(=O)NCc3ccc(Cl)cc3)c(O)c2c1 [Example 153, N-(4-Chlorobenzyl)-8-fluoro-4-hydroxy-6-[(E)-3-oxo-1-butenyl]-3-quinolinecarboxamide]
3.4	O=C(NCc1ccc(Cl)cc1)c1cnc2c(F)cc(CCCCCO)cc2c1O [Example 154, N-(4-Chlorobenzyl)-8-fluoro-4-hydroxy-6-(5-hydroxypentyl)-3-quinolinecarboxamide]

More lines, now with the values behind:

Compound	IC50 [µM]
O=C(NCc1ccc(Cl)cc1)c1cnc2cc(C#CCO)ccc2c1O [Example 101, N-(4-Chlorobenzyl)-4-hydroxy-7-(3-hydroxy-1-propynyl)-3-quinolinecarboxamide]	25.8
NC(=S)c1ccc2c(O)c(C(=O)NCc3ccc(Cl)cc3)cnc2c1 [Example 102, 7-(Aminocarbothioyl)-N-(4-chlorobenzyl)-4-hydroxy-3-quinoline-carboxamide]	4.6
CN(CCCc1cc(F)c2ncc(C(=O)NCc3ccc(Cl)cc3)c(O)c2c1)Cc1ccccc1 [Example 108, 6-{3-[Benzyl(methyl)amino]propyl}-N-(4-chlorobenzyl)-8-fluoro-4-hydroxy-3-quinolinecarboxamide]	6.5
O=C(NCc1ccc(Cl)cc1)c1cnc2cc(CCCO)ccc2c1O [Example 111, N-(4-Chlorobenzyl)-4-hydroxy-7-(3-hydroxypropyl)-3-quinoline-carboxamide]	2.6
CCOC(=O)/C=C/c1cc(F)c2ncc(C(=O)NCc3ccc(Cl)cc3)c(O)c2c1 [Example 112, Ethyl (E)-3-(3-{[(4-chlorobenzyl)amino]carbonyl}-8-fluoro-4-hydroxy-6-quinolinyl)-2-propenoate]	14
O=C(O)CCC#Cc1cc(F)c2ncc(C(=O)NCc3ccc(Cl)cc3)c(O)c2c1 [Example 115, 5-(3-{[(4-Chlorobenzyl)amino]carbonyl}-8-fluoro-4-hydroxy-6-quinolinyl)-4-pentynoic acid]	6.1
O=C(NCc1ccc(Cl)cc1)c1cnc2ccc3[nH]ncc3c2c1O [Example 116]	16.5
COc1cc(I)cc2c(O)c(C(=O)NCc3ccc(Cl)cc3)cnc12 [Example 117, N-(4-Chlorobenzyl)-4-hydroxy-6-iodo-8-methoxy-3-quinolinecarboxamide]	8.7
O=C(NCc1ccc(Cl)cc1)c1cnc2c(C(F)(F)F)cc(C#CCO)cc2c1O [Example 121, N-(4-Chlorobenzyl)-4-hydroxy-6-(3-hydroxy-1-propynyl)-8-(trifluoromethyl)-3-quinolinecarboxamide]	15
O=C(NCc1ccc(Cl)cc1)c1cnc2c(OC(F)(F)F)cc(C#CCO)cc2c1O [Example 122, N-(4-Chlorobenzyl)-4-hydroxy-6-(3-hydroxy-1-propynyl)-8-(trifluoromethoxy)-3-quinolinecarboxamide]	1.8
O=C(NCc1ccc(Cl)cc1)c1cnc2c(C(F)(F)F)cc(CCCO)cc2c1O [Example 123, N-(4-Chlorobenzyl)-4-hydroxy-6-(3-hydroxypropyl)-8-(trifluoromethyl)-3-quinolinecarboxamide]	2.2
CCSCC#Cc1cc(F)c2ncc(C(=O)NCc3ccc(Cl)cc3)c(O)c2c1 [Example 127, N-[(4-Chlorophenyl)methyl]-6-[3-(ethylthio)-1-propynyl]-8-fluoro-4-hydroxy-3-quinolinecarboxamide]	23.5
O=COCC#Cc1cc(F)c2ncc(C(=O)NCc3ccc(Cl)cc3)c(O)c2c1 [Example 131, 3-(3-{[(4-Chlorobenzyl)amino]carbonyl}-8-fluoro-4-hydroxy-6-quinolinyl)-2-propynyl formate]	1.8
O=C(NCc1ccc(Cl)cc1)c1c[nH]c2ccc(/C=C\CO)cc2c1=O [Example 135, N-[(4-Chlorophenyl)methyl]-1,4-dihydro-6-[(1Z)-3-hydroxy-1-propenyl]-4-oxo-3-quinolinecarboxamide]	0.78
CC(C)C(NC(=O)OC(C)(C)C)C(=O)OCCCc1cc(F)c2ncc(C(=O)NCc3ccc(Cl)cc3)c(O)c2c1 (stereo not drawn) [Example 146, 3-(3-{[(4-Chlorobenzyl)amino]carbonyl}-8-fluoro-4-hydroxy-6-quinolinyl)propyl 2-[(tert-butoxycarbonyl)amino]-3-methylbutanoate]	38.7
O=C(CN1CCOCC1)OCCCc1cc(F)c2ncc(C(=O)NCc3ccc(Cl)cc3)c(O)c2c1 [Example 147, 3-(3-([(4-Chlorobenzyl)amino]carbonyl}-8-fluoro-4-hydroxy-6-quinolinyl)propyl 2-morpholinoacetate]	7
CC(C)C(N)C(=O)OCCCc1cc(F)c2ncc(C(=O)NCc3ccc(Cl)cc3)c(O)c2c1 (stereo not drawn) [Example 149, 3-(3-{[(4-Chlorobenzyl)amino]carbonyl}-8-fluoro-4-hydroxy-6-quinolinyl)propyl 2-amino-3-methylbutanoate]	6.3
O=C(Nc1ccccc1)OCC#Cc1cc(F)c2ncc(C(=O)NCc3ccc(Cl)cc3)c(O)c2c1 [Example 150, 3-(3-{[(4-Chlorobenzyl)amino]carbonyl}-8-fluoro-4-hydroxy-6-quinolinyl)-2-propynyl phenylcarbamate]	4.8
CCCc1ccc2ncc(C(=O)NCc3ccc(Cl)cc3)c(O)c2c1 [Example 151, N-(4-Chlorobenzyl)-4-hydroxy-6-propyl-3-quinolinecarboxamide]	0.91
CC(O)C#Cc1ccc2ncc(C(=O)NCc3ccc(Cl)cc3)c(O)c2c1 (stereo not drawn) [Example 152, N-(4-Chlorobenzyl)-4-hydroxy-6-(3-hydroxy-1-butynyl)-3-quinolinecarboxamide]	5.4
